Measured values from patent US20220305012A1, “L[…] TREATING SLEEP ISSUES” (EISAI R&D MANAGEMENT CO., LTD., priority 2019, published 2022).

How the values were obtained:
Format in all cases: in vivo, human
[1] = test system: Subjects Having Insomnia Disorder; test: Example 2: subjective sleep onset latency (sSOL), sleep diary
From the text: As used herein, the term “subjective sleep onset latency”, abbreviated as “sSOL”, means the estimated number of minutes from the time that the subject attempted to sleep until sleep onset. In some embodiments, sSOL is derived from data entered in a subject's Sleep Diary.
In some embodiments, sleep diaries were used to assess sleep parameters reported by subjects (i.e., subjective assessments) including subjective sleep onset latency (sSOL), subjective sleep efficiency (sSE), subjective WASO (sWASO), and subjective total sleep time (sTST). Subjects were instructed to complete the Sleep Diary developed based on the consensus Sleep Diary as described in Carney et al., “The consensus sleep diary: standardizing prospective sleep self-monitoring,” Sleep 2012; 35(2):287-302. In some embodiments, the Sleep Diary was used to assess the subject's global perception of quality of sleep on the previous night with the following question: “How would you rate the quality of your sleep last night?” Subjects rated the quality of their sleep on a scale from 1 to 9, with 1 being extremely poor and 9 being extremely good. In some embodiments, the Sleep Diary was used to assess subjective ratings of morning sleepiness with the following question: “How alert/sleepy do you feel this morning?” Subjects rated their sleepiness/alertness level on a Likert scale from 1 to 9, with 1 being extremely sleepy and 9 being extremely alert.
sSOL—subjective sleep onset latency: estimated minutes from the time that the subject attempted to sleep until sleep onset.
(§1) The treatment period lasted for 31 days. Subjects were randomized in a double-blind manner and received placebo, a tablet containing 5 mg of lemborexant, a tablet containing 10 mg of lemborexant, or a tablet containing 6.25 mg of zolpidem ER.
Once home, the subject ingested study drug each night prior to bedtime and completed their sleep diary within 1 hour of waketime.

[2] = test system: Subjects Having Insomnia Disorder; test: Example 2: Cognitive Performance Assessment Battery; details: either dose, at either time point (FIGS. 11A-11D)
Procedure: FIG. 11A-FIG. 11D show the change from baseline (least squares mean) in the four domains of the Cognitive Performance Assessment Battery at Days 2/3 and Days 30/31 in patients treated with placebo, 6.25 mg of zolpidem, 5 mg of lemborexant, or 10 mg of lemborexant.
Subjects were provided with a sleep diary and trained on how to record entries. After subjects completed the sleep diary on 7 consecutive mornings, and provided that the subject was still eligible to participate in the study, they attended a second clinical meeting between 10 and 17 days before the randomization phase. […]
Within 5 minutes of the subject's mean habitual bedtime, study drug was administered and an overnight polysomnogram recording was initiated. At completion of the recording the following morning (Day 2), postural stability and cognitive performance were assessed. […] The next morning (Day 3), postural stability and cognitive performance were assessed. […]
On Day 29, subjects returned to the clinic. […] On the following morning (Day 30), postural stability and cognitive performance were assessed. […]
On the evening of Day 30, subjects returned to the clinic. […] The following morning (Day 31), postural stability and cognitive performance were assessed and a blood sample was obtained. […] An electrocardiogram was performed, and vital signs and weight were assessed. […]

[3] = test system: Subjects Having Insomnia Disorder; test: Example 2: treatment-emergent adverse events
Procedure: Between 14 and 18 days after completion of the treatment period, subjects returned to the clinic for the end of study visit. The T-BWSQ and eC-SSRS were administered and routine safety assessments were conducted.
A subject who prematurely discontinued taking study drug was to return to the clinic as soon as practicable after discontinuing study drug. If the subject discontinued due to an adverse event, the adverse event must have been followed to resolution or for 2 weeks, whichever came first. Additionally, subjects who discontinued early underwent a urine drug test.

[4] = test system: Subjects Having Insomnia Disorder; test: Example 2: wake after sleep onset in the second half of the night (WASO2H), polysomnography
Procedure: In some embodiments, a sleep parameter is determined objectively using polysomnography. Polysomnography is the monitoring of multiple electrophysiological parameters during sleep and generally includes measurement of EEG activity, electro-oculographic activity and electromyographic activity, as well as other measurements.
WASO2H: wake after sleep onset in the second half of the night: minutes of wake during the interval from 240 minutes after lights off until lights on.
as §1
Within 5 minutes of the subject's mean habitual bedtime, study drug was administered and an overnight polysomnogram recording was initiated. At completion of the recording the following morning (Day 2), postural stability and cognitive performance were assessed. On the Day 2 evening, subjects returned to the clinic and a blood sample was collected before administering study drug, and then study drug was administered within 5 minutes of the subject's mean habitual bedtime. Again, a polysomnogram recording was initiated. The next morning (Day 3), postural stability and cognitive performance were assessed. A blood sample was also collected.
On Day 29, subjects returned to the clinic. Study drug was administered within 5 minutes of the subject's mean habitual bedtime and a polysomnogram recording was conducted. On the following morning (Day 30), postural stability and cognitive performance were assessed. After 1.5 hours of waketime, subjects rated their morning sleepiness level.
On the evening of Day 30, subjects returned to the clinic. A pre-dose blood sample was collected and study drug was again administered within 5 minutes of the subject's mean habitual bedtime. A polysomnogram recording was initiated. The following morning (Day 31), postural stability and cognitive performance were assessed and a blood sample was obtained. The ISI, FSS, EQ-5D-3L and PGI-Insomnia were administered. Blood and urine samples were collected for routine safety assessment. An electrocardiogram was performed, and vital signs and weight were assessed. The eC-SSRS was then administered to the subject. At 1.5 hours after waketime, subjects rated their morning sleepiness level.
Another key secondary endpoint was to determine the change from baseline for mean wake after sleep onset in the second half of the night on Days 29 and 30 after administration of 5 mg or 10 mg of lemborexant compared to administration of 6.25 mg of zolpidem ER.

[5] = 5 mg, First 7 Nights of Treatment
[6] = 5 mg, Last 7 Nights of Treatment
[7] = 10 mg, First 7 Nights of Treatment
[8] = 10 mg, Last 7 Nights of Treatment

Cc1ncc(OC[C@@]2(c3cccc(F)c3)C[C@H]2C(=O)Nc2ccc(F)cn2)c(C)n1 [Lemborexant, (1R,2S)-2-(((2,4-dimethylpyrimidin-5-yl)oxy)methyl)-2-(3-fluorophenyl)-N-(5-fluoropyridin-2-yl)cyclopropanecarboxamide]
sSOL Change from Study Baseline, Mean (SD) [1, 5]: −22.54 (32.812) minutes | sSOL Change from Study Baseline, Median [1, 5]: -14.86 min | sSOL, Mean (SD) [1, 5]: 42.39 (28.075) minutes | sSOL, Median [1, 5]: 29.64 min | sSOL Change from Study Baseline, Mean (SD) [1, 6]: −25.20 (34.854) minutes | sSOL Change from Study Baseline, Median [1, 6]: -18.54 min | sSOL, Mean (SD) [1, 6]: 38.80 (28.028) minutes | sSOL, Median [1, 6]: 30.36 min | sSOL, Mean (SD) ([1]; 5 mg, Study Baseline): 65.79 (43.530) minutes | sSOL, Median ([1]; 5 mg, Study Baseline): 58.57 min | sSOL Change from Study Baseline, Mean (SD) [1, 7]: −21.88 (29.269) minutes | sSOL Change from Study Baseline, Median [1, 7]: -15.00 min | sSOL, Mean (SD) [1, 7]: 38.64 (32.092) minutes | sSOL Change from Study Baseline, Mean (SD) [1, 8]: −24.79 (34.068) minutes | sSOL Change from Study Baseline, Median [1, 8]: -17.14 min | sSOL, Mean (SD) [1, 8]: 36.51 (31.059) minutes | sSOL, Median [1, 8]: 27.50 min | sSOL, Mean (SD) ([1]; 10 mg, Study Baseline): 60.88 (42.514) minutes | sSOL, Median ([1]; 10 mg, Study Baseline): 53.57 min | mean subjective sleep onset latency ([1]; all lemborexant treatment groups, relative to baseline, placebo and zolpidem treatment groups (Table 18)): reduced | cognitive tests compared with placebo [2]: neither dose of lemborexant differed from placebo | safety and tolerability (incidence of adverse events) ([3]; Example 2 (Table 29)): safe and well-tolerated | Congenital anomaly/birth defect ([3]; Lemborexant 5 mg (N = 266)): 0 n (%) | Deaths ([3]; Lemborexant 5 mg (N = 266)): 0 n (%) | Important medical events ([3]; Lemborexant 5 mg (N = 266)): 1 (0.3) n (%) | Life threatening ([3]; Lemborexant 5 mg (N = 266)): 0 n (%) | Other SAEs ([3]; Lemborexant 5 mg (N = 266)): 2 (0.8) n (%) | Persistent or significant disability or incapacity ([3]; Lemborexant 5 mg (N = 266)): 0 n (%) | Requires inpatient hospitalization or prolongation of existing hospitalization ([3]; Lemborexant 5 mg (N = 266)): 2 (0.8) n (%) | Serious TEAEs ([3]; Lemborexant 5 mg (N = 266)): 2 (0.8) n (%) | Severe TEAEs ([3]; Lemborexant 5 mg (N = 266)): 1 (0.4) n (%) | TEAEs ([3]; Lemborexant 5 mg (N = 266)): 74 (27.8) n (%) | TEAEs leading to study dose reduced ([3]; Lemborexant 5 mg (N = 266)): 0 n (%) | TEAEs leading to study drug dose adjustment ([3]; Lemborexant 5 mg (N = 266)): 3 (1.1) n (%) | TEAEs leading to study drug interrupted ([3]; Lemborexant 5 mg (N = 266)): 1 (0.4) n (%) | TEAEs leading to study drug withdrawal ([3]; Lemborexant 5 mg (N = 266)): 2 (0.8) n (%) | Treatment-related TEAEs ([3]; Lemborexant 5 mg (N = 266)): 30 (11.3) n (%) | Congenital anomaly/birth defect ([3]; Lemborexant 10 mg (N = 268)): 0 n (%) | Deaths ([3]; Lemborexant 10 mg (N = 268)): 0 n (%) | Important medical events ([3]; Lemborexant 10 mg (N = 268)): 0 n (%) | Life threatening ([3]; Lemborexant 10 mg (N = 268)): 0 n (%) | Other SAEs ([3]; Lemborexant 10 mg (N = 268)): 0 n (%) | Persistent or significant disability or incapacity ([3]; Lemborexant 10 mg (N = 268)): 0 n (%) | Requires inpatient hospitalization or prolongation of existing hospitalization ([3]; Lemborexant 10 mg (N = 268)): 0 n (%) | Serious TEAEs ([3]; Lemborexant 10 mg (N = 268)): 0 n (%) | Severe TEAEs ([3]; Lemborexant 10 mg (N = 268)): 2 (0.7) n (%) | TEAEs ([3]; Lemborexant 10 mg (N = 268)): 82 (30.6) n (%) | TEAEs leading to study dose reduced ([3]; Lemborexant 10 mg (N = 268)): 0 n (%) | TEAEs leading to study drug dose adjustment ([3]; Lemborexant 10 mg (N = 268)): 3 (1.1) n (%) | TEAEs leading to study drug interrupted ([3]; Lemborexant 10 mg (N = 268)): 0 n (%) | TEAEs leading to study drug withdrawal ([3]; Lemborexant 10 mg (N = 268)): 3 (1.1) n (%) | Treatment-related TEAEs ([3]; Lemborexant 10 mg (N = 268)): 39 (14.6) n (%) | Wake After Sleep Onset in the Second Half of the Night, Change from Study Baseline, Mean (SD) ([4]; Days 1/2, Lemborexant 5 mg): −30.28 (32.056) | Wake After Sleep Onset in the Second Half of the Night, Change from Study Baseline, Median ([4]; Days 1/2, Lemborexant 5 mg): −27.63 | Wake After Sleep Onset in the Second Half of the Night, Mean (SD) ([4]; Days 1/2, Lemborexant 5 mg): 46.32 (25.600) | Wake After Sleep Onset in the Second Half of the Night, Median ([4]; Days 1/2, Lemborexant 5 mg): 40.88 | Wake After Sleep Onset in the Second Half of the Night, Change from Study Baseline, Mean (SD) ([4]; Days 1/2, Lemborexant 10 mg): −37.10 (30.815) | Wake After Sleep Onset in the Second Half of the Night, Change from Study Baseline, Median ([4]; Days 1/2, Lemborexant 10 mg): −32.00 | Wake After Sleep Onset in the Second Half of the Night, Mean (SD) ([4]; Days 1/2, Lemborexant 10 mg): 39.78 (23.709) | Wake After Sleep Onset in the Second Half of the Night, Median ([4]; Days 1/2, Lemborexant 10 mg): 34.00 | Wake After Sleep Onset in the Second Half of the Night, Change from Study Baseline, LSM treatment difference: Lemborexant-Zolpidem ([4]; Days 29/30, Lemborexant 5 mg): −6.65 (2.298) | Wake After Sleep Onset in the Second Half of the Night, Change from Study Baseline, Mean (SD) ([4]; Days 29/30, Lemborexant 5 mg): −27.19 (33.047) | Wake After Sleep Onset in the Second Half of the Night, Change from Study Baseline, Median ([4]; Days 29/30, Lemborexant 5 mg): −25.63 | Wake After Sleep Onset in the Second Half of the Night, Mean (SD) ([4]; Days 29/30, Lemborexant 5 mg): 49.11 (28.179) | Wake After Sleep Onset in the Second Half of the Night, Median ([4]; Days 29/30, Lemborexant 5 mg): 42.13 | Wake After Sleep Onset in the Second Half of the Night, Change from Study Baseline, LSM treatment difference: Lemborexant-Zolpidem ([4]; Days 29/30, Lemborexant 10 mg): −8.00 (2.309) | Wake After Sleep Onset in the Second Half of the Night, Change from Study Baseline, Median ([4]; Days 29/30, Lemborexant 10 mg): −27.25 | Wake After Sleep Onset in the Second Half of the Night, Mean (SD) ([4]; Days 29/30, Lemborexant 10 mg): 48.15 (27.844) | Wake After Sleep Onset in the Second Half of the Night, Median ([4]; Days 29/30, Lemborexant 10 mg): 41.75 | mean wake after sleep onset in the second half of the night ([4]; all lemborexant treatment groups, relative to baseline, placebo and zolpidem treatment groups (Table 16)): reduced
